One block for each compound: values may come before it.
Columns and labels:
[1] = biological target: T1, Human recombinant TCII (Homo sapiens, UniProt P20062); test: TCII binding, radio chase assay using 57Co-labelled B12
T1 sequence (P20062 19-427): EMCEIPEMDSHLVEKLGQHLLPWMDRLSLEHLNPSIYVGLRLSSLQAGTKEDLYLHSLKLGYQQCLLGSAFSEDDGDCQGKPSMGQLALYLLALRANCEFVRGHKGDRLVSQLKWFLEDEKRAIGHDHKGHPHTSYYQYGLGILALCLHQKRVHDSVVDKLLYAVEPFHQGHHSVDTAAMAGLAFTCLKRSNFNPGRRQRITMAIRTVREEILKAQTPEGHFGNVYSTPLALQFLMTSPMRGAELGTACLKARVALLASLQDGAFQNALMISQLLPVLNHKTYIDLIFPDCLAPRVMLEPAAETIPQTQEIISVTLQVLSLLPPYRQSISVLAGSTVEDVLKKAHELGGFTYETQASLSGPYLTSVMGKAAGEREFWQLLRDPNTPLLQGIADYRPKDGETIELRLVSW
Text: FIG. 1 is a series of graphs of (A) Synthetic scheme for Cy5-B12, Cy5 alkyne was “clicked” onto a B12-azide conjugate. (B) RP-HPLC of Cy5-B12 showing purity ≥98% and LC-MS showing 1031[M+2H]^+2, 1042[M+Na+2H]^+2, and 1050 [M+K+2H]^+2, consistent with the conjugate. (C) Excitation and emission spectra of Cy5-B12 at 645 and 682 nm, respectively. […] Note that B12-Ex4 agonism at the GLP-1 receptor was previously reported (68 pM).
One addition to the characterization was the measure of TCII binding of B12-Ex4 (FIG. 1D), which was conducted at the Department of Clinical Medicine-Clinical Biochemistry, University of Aarhus, Denmark as described. […] Injections were separated by at least 48 h. For most in vivo experiments, injections were administered using a within-subjects, Latin square design. The exception was the conditioned taste avoidance (CTA) study, which used a between-subjects design.
In addition, the food intake- and body weight-suppressive effects of GLP-1R agonists have highlighted the utility of these pharmacotherapies for the treatment of obesity.

[2] = Intraperitoneal glucose tolerance test (IPGTT); assay type: in vivo, C57BL/6J mice; conditions: mice
Description: The experimental procedure for IPGTT in mice was similar to that used for OGTT in rats. Briefly, mice (n=13; 8 females, 5 males) were food and water deprived for 4 h before and during the IPGTT. Testing was completed mid-light phase. Blood was collected from the tail tip and analyzed for BG. […] Thirty minutes later (t=0 min), BG was measured and each mouse received an IP injection of glucose (2 g/kg). Subsequent BG readings were taken at 20, 40, 60, and 120 min after glucose injection. After the final BG reading, food and water were returned. Area under the curve (AUC) was calculated from 0-120 min (e.g., beginning at the time of glucose administration) using the trapezoidal method.

[3] = Oral glucose tolerance test (OGTT); assay type: in vivo, Sprague Dawley rats; conditions: rats
Description: Rats (n=12) were deprived of food overnight before testing. On the morning of testing, just after the onset of the […], water was also removed from the cage. A small drop of blood was collected from the tail tip and analyzed for blood glucose (BG) level using a standard glucometer (AccuCheck). Immediately after this baseline BG reading (t=−30 min), each rat received SC injection of B12-Ex4 (5 or 20 μg/kg) or vehicle (1 ml/kg sterile saline); doses of drug were selected based on the results of the feeding study. Thirty minutes later (t=0 min), BG was measured and each rat received an oral gavage of glucose (2 g/kg). Subsequent BG readings were taken at 20, 40, 60, and 120 min after glucose gavage. After the final BG reading, food and water were returned.
(§1) Pre-weighed food was returned to the rats after the OGTT, and chow intake was measured for ˜21.5 h (e.g., until 24 h after the SC injections). Spillage was accounted for in food intake measurements. Body weight was recorded at 0 and 24 h. For the OGTT, n=10 rats were tested; food and body weight data were collected from n=9 due to a technical error in food intake measurement.

[4] = Energy balance: chow intake and body weight after SC injection; assay type: in vivo, Sprague Dawley rats; conditions: rats
Description: Shortly before the onset of the dark phase, rats (n=12) were given subcutaneous (SC) injection of B12-Ex4 (1, 5, or 20 μg/kg) or vehicle (1 ml/kg sterile saline). Chow intake was measured at 1, 3, 6, and 24 h post-injection. Food spillage was accounted for in all intake measurements. Body weight was also measured at 0 and 24 h.
as §1

[5] = Oral glucose tolerance test, food intake and nausea (kaolin consumption) in diabetic lean rats; assay type: in vivo; conditions: Goto-Kakazaki rats; Ex-4 20 ug/Kg, B12-Ex4 equimolar, liraglutide 100 ug/Kg, 60 min pre-glucose
Description: FIG. 8 is a series of graphs showing a standard oral glucose tolerance test performed in Goto-Kakazaki rats, a form of naturally diabetic lean rat, along with food intake and nausea measurements.
Referring to FIG. 8, Testing of Ex-4 at 20 ug/Kg, B12-Ex4 at equimolar to Ex-4, and liraglutide at 100 ug/Kg were screened for glucoregulation, food intake reduction and nausea (kaolin consumption). All drugs were administered at 60 minutes pre-glucose bolus, food intake and nausea were tracked over 6 hours.

[6] = Conditioned taste avoidance (CTA), two-bottle test (nausea/malaise); assay type: in vivo, Sprague Dawley rats; conditions: rats, IP, B12-Ex4 5 μg/kg, LiCl 0.15M
Description: Rats (n=8-10 per drug) were evaluated for expression of a CTA to a flavor paired with B12-Ex4 (5 μg/kg, IP). […] See Supplemental Methods for more details.

- Kd [1]: 0.98 nM
Compound: Cyanocobalamin [cyano-B12]

Compound: exendin-4 [Ex4]
- BG prior to IP glucose injection (t=0) ([2]; 30 min after IP drug): reduced BG levels
- blood glucose levels in the IPGTT ([2]; IP Ex4 5 μg/kg or equimolar B12-Ex4, IP glucose 2 g/kg): strongly attenuated the increase in blood glucose levels
- BG at 20 min, Ex4 compared to B12-Ex4 ([2]; p<0.05): more potent effect
- blood glucose area under the curve 0-120 min ([2]; post-glucose load, vs saline): hypoglycemic effects
- blood glucose by drug on its own (t=0, before glucose) ([3]; SC 5 or 20 μg/kg, 30 min after injection): increased BG on its own
- blood glucose levels in the OGTT (overall) ([3]; SC 5 or 20 μg/kg, oral glucose 2 g/kg): pronounced hyperglycemic response
- BG late after glucose gavage ([3]; B12-Ex4: both doses at 60 min, higher dose at 120 min, Ex4: 40, 60, 120 min): remained significantly elevated
- food intake in the 21.5 h after OGTT ([4]; SC 5 or 20 μg/kg, vs vehicle): ate significantly less
- body weight gain, 24 h ([4]; SC, vehicle versus 20 μg/kg p<0.05): gained less body weight
- hyperglycemia in OGTT [5]: does do

Compound: [Cl-].[Li+] [LiCl, lithium chloride]
- acceptance of the drug-paired flavor (CTA) [6]: produce avoidance of the drug-paired flavor

— patent publication US10695434B2, “Preventing central nervous system induced nausea through use of vitamin B12 conjugation” (Syracuse University, priority 2018, dated 2020)
